Consider 23 compounds from patent US9963444B2, “N-acylethanolamine hydrolyzing acid amidase (NAAA) inhibitors and their use thereof” (Northeastern University, priority 2014, dated 2018).

SMILES strings stand for the structures. Like-named read-outs stand apart in the source and are kept apart here.

Assay [1] deals with T1, hNAAA (Homo sapiens (Human), UniProt Q02083). The experiment in a line: Inhibition kinetics of hNAAA (pre-incubation, Lineweaver-Burk plot, rapid dilution). Type of assay: biochemical. The method, then:
The curves represent 15 minutes (filled circles, solid line) and 3 hours (open circles, dotted line) preincubation of hNAAA with NAAA inhibitor Example 4.
Example 4 inhibition kinetics of hNAAA (reversible or irreversible) was investigated using two methods: (1) Short (15 min) and long (180 min) pre-incubation of the inhibitor and enzyme prior to addition of N-(4-methyl coumarin) palmitamide (PAMCA) substrate (FIG. 1). Example's 4 inhibition concentration (IC50) was unaffected by longer pre-incubation of hNAAA with 4.

The test system of the next assay is TNBS-induced colitis. Description: TNBS-induced colitis in mice. It is filed as in vivo. The method, then: NAAA inhibitor Example 4 (10 mg/kg bid, ip) *p<0.05 versus the TNBS untreated group.
PEA (10 mg/kg) and NAAA inhibitor Example 4 (AM; 10 mg/kg bid, ip). Mice were sacrificed on day 3 after administration. Effects of PEA and Example 4 on colon weight/length ratio, feces and MPO activity, mRNA expression of F4-80, CD11b, IL-12, TNF-α, MCP-1 and IL-1β expression measured by ELISA. #p<0.05; ##p<0.005; ###p<0.001 versus control mice; *p<0.05 versus the TNBS-untreated group.
TNBS-induced colitis is accompanied by increased pro-inflammatory cytokines expression in the liver and brain. Effects of PEA administration and NAAA inhibition with Example 4 (10 mg/kg b.i.d) on pro-inflammatory cytokines expression in (A) the liver and (B) brain. Results are expressed as mean±SEM with n=10mice/group. *p<0.05; **p<0.005; ***p<0.001 versus the TNBS untreated group.
Applicants also studied the compound of Example 4 in animal models of trinitrobenzene sulfonic acid (TNBS)- and dextran sodium sulfate (DSS)-induced colitis. This study aimed to investigate the effects of inhibiting NAAA responsible for PEA hydrolysis in colon inflammation in order to propose a potential therapeutic target for inflammatory bowel diseases. PEA is a known anti-inflammatory compound with analgesic, neuroprotective and anti-allergic properties, and was recently shown to exert PPARα dependent beneficial effects on colon inflammation [Laboratory Investigation; a Journal of Technical Methods and Pathology. 2004; 84: 1643-54].

The target of assay [2] is T1, hNAAA. Description: Fluorescence-based NAAA inhibition assay with fluorogenic substrate PAMCA.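 Also: compound preincubated 15 min at room temperature with hNAAA, then PAMCA added at 5 µM, reacted 120 min at 37 °C, AMC release read by fluorescence (ex 360, em 460 nm).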
Protocol: For three point concentration inhibition assays with hNAAA the following procedure is used. […] These samples are allowed to incubate for 15 min at room temperature and then 10 μL of a PAMCA stock solution in DMSO (final PAMCA concentration [5 μM]) was added. After 5 minutes of agitation on a shaking plate, the reaction is allowed to proceed at 37° C. for 120 minutes, with fluorescence readings taken every 10 minutes at a wavelength of 460 nm (using an excitation wavelength of 360 nm) on a Synergy HT Plate Reader using Gen5 software from Bio-Tek. The enzyme activity is calculated by converting the relative fluorescence units to AMC formed, using a standard curve of AMC. […] The assay procedure used is the same as the three point assay. […] After 5 minutes of agitation on a shaking plate, the reaction is allowed to proceed at 37° C. for 120 minutes Inhibition constants are calculated using pro Fit software (Quantum Soft, Uetikon am See, Switzerland) and a Levenberg-Marquardt algorithm.
For three point concentration inhibition assays with hNAAA the following procedure is used. […] These samples are allowed to incubate for 15 min at room temperature and then 10 μL of a PAMCA stock solution in DMSO (final PAMCA concentration [5 μM]) was added. After 5 minutes of agitation on a shaking plate, the reaction is allowed to proceed at 37° C. for 120 minutes, with fluorescence readings taken every 10 minutes at a wavelength of 460 nm (using an excitation wavelength of 360 nm) on a Synergy HT Plate Reader using Gen5 software from Bio-Tek. The enzyme activity is calculated by converting the relative fluorescence units to AMC formed, using a standard curve of AMC.
The assay procedure used is the same as the three point assay. […] After 5 minutes of agitation on a shaking plate, the reaction is allowed to proceed at 37° C. for 120 minutes. Inhibition constants are calculated using pro Fit software (Quantum Soft, Uetikon am See, Switzerland) and a Levenberg-Marquardt algorithm.
Where [3] appears, read: 10 mg/kg bid, ip, sacrificed day 3.
Setting [4] is: read-out: NAAA Inhibition IC50 μM, purified hNAAA, PAMCA 5 μM, pH 4.5.

T1 sequence (Q02083 29-125): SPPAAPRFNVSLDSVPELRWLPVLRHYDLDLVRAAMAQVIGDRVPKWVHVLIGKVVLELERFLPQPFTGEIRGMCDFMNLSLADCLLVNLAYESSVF
T1 sequence (Q02083 126-359): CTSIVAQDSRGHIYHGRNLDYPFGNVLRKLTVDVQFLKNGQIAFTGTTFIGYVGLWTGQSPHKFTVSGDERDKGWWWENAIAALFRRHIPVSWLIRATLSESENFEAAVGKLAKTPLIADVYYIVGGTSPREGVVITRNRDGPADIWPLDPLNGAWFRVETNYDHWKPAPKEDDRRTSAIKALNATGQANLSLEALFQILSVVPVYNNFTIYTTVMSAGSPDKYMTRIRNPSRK

Regarding `S=C=NCCCCCCCCCCc1ccccc1` [Example 4, (10-Isothiocyanatodecyl)benzene], the “Effect of longer pre-incubation on IC50” value on hNAAA [1] (15 min vs 180 min pre-incubation of inhibitor and enzyme before PAMCA) is “unaffected”. For the same compound, at hNAAA [1] (PAMCA at different concentrations, inhibitor 50 nM), the “Type of inhibition (Lineweaver-Burk plot)” value is on record as “competitive type inhibitor”. For the same compound, the “Mode of inhibition (reversibility)” value at hNAAA [1] (conclusion from pre-incubation and rapid dilution) was “reversible and non-covalent inhibitor”. Further, the “Recovery of enzyme activity in rapid dilution experiment” value at hNAAA [1] (dilution to inhibitor concentration below IC50) is on record as “fully recovered”. In addition, the “Pro-inflammatory cytokines and chemokines expression in the liver and brain” value with TNBS-induced colitis (10 mg/kg b.i.d, liver and brain) is “decreased”. The “PEA levels in the colon” value in the assay on TNBS-induced colitis (10 mg/kg bid, ip, TNBS-induced colitis) is given as “increased”. Moreover, in the assay with TNBS-induced colitis (10 mg/kg bid, ip, colon), the “Expression of pro-inflammatory cytokines and chemokines in colon” value is reported as “reduced”; the “Leukocyte infiltration and activation (MPO activity, F4-80 and CD11b expression)” value was “reduced”. In the assay on TNBS-induced colitis (setting [3]), the “All measured parameters of colon inflammation” value is listed as “decreased”, the Colon weight/length ratio result is given as “reduced” and the “Weight of the cecal content” value is on record as “reduced”. This compound also showed an IC50 against hNAAA [2] of 0.01 to 0.1 µM. Turning to `CCN(Cc1ccc(-c2ccc3c(c2)OCO3)cc1)C1CC(N=C=S)C1` [Example 56, (1R,3R)—N-(4-(benzo[d][1,3]dioxol-5-yl)benzyl)-N-ethyl-3-isothiocyanatocyclobutan-1-amine], the half-inhibitory concentration (IC50) on hNAAA [2] (setting [4]) lay within 0.11 to 1 µM. Compound `Fc1cc(-c2ccc3c(c2)OCCO3)ccc1CO[C@H]1C[C@@H](N=C=S)C1` [Example 38, 6-(3-Fluoro-4-(((1S,3S)-3-isothiocyanatocyclobutoxy)methyl)phenyl)-2,3-dihydrobenzo[b][1,4]dioxine] came in with an IC50 at hNAAA [2] of 0.01 to 0.1 µM.

Turning to `S=C=NCCCOCc1cccc(-c2ccccc2)c1` [Example 24, 3-((3-Isothiocyanatopropoxy)methyl)-1,1′-biphenyl], the IC50 on hNAAA [2] was 0.01 to 0.1 µM. Turning to `S=C=NCc1ccc(COc2ccccc2)cc1` [Example 15, 1-(Isothiocyanatomethyl)-4-(phenoxymethyl)benzene], on hNAAA [2] (setting [4]), the concentration for half-maximal inhibition (IC50) was > 1 µM. For the compound `S=C=NCCCCCCCCCCCc1ccccc1` [Example 21, (11-Isothiocyanatoundecyl)benzene], the half-maximal inhibitory concentration (IC50) on hNAAA [2] lay within 0.01 to 0.1 µM. The same measure, in the same setting: as for `COc1ccc(-c2ccc(COC3CN(C#N)C3)cc2)cn1` [Example 73, 3-((4-(6-Methoxypyridin-3-yl)benzyl)oxy)azetidine-1-carbonitrile], the figure is 0.01 to 0.1 µM. Take `CN(Cc1ccc(-c2ccc3c(c2)OCO3)cc1)C1CC(N=C=S)C1` [Example 55, (1R,3R)—N-(4-(benzo[d][1,3]dioxol-5-yl)benzyl)-3-isothiocyanato-N-methylcyclobutan-1-amine]: the IC50 at hNAAA [2] (setting [4]) is > 1 µM. As to `N#Cc1ccc(OCc2ccc(-c3ccccc3)cc2)cn1` [Example 111, 5-([1,1′-Biphenyl]-4-ylmethoxy)picolinonitrile], the concentration for half-maximal inhibition (IC50) at hNAAA [2] (setting [4]) is > 1 µM. As to `COc1ncccc1-c1cc(Oc2ccccc2)ccc1COC1CN(C#N)C1` [Example 91, 3-((2-(2-Methoxypyridin-3-yl)-4-phenoxybenzyl)oxy)azetidine-1-carbonitrile], the concentration for half-maximal inhibition (IC50) against hNAAA [2] fell in the range of 0.01 to 0.1 µM.

For `N#CN1CC(OCc2ccc(-c3cccc(OCc4ccccc4)c3)cc2)C1` [Example 85, 3-((3′-(Benzyloxy)-[1,1′-biphenyl]-4-yl)methoxy)azetidine-1-carbonitrile], the half-maximal inhibitory concentration (IC50) on hNAAA [2] is 0.01 to 0.1 µM.

For `N#Cc1cccc(C(=O)OCCCCCc2ccccc2)n1` [Example 114, 5-phenylpentyl 6-cyanopicolinate], the IC50 at hNAAA [2] (setting [4]) is > 1 µM. The compound `S=C=NC[C@H]1C[C@@H](OCc2ccc(-c3ccccc3)cc2)C1` [Example 57, 4-(((1S,3S)-3-(isothiocyanatomethyl)cyclobutoxy)methyl)-1,1′-biphenyl] registered an IC50 on hNAAA [2] of 0.11 to 1 µM.

`S=C=NCCCOCc1ccc(Oc2ccccc2)cc1` [Example 26, 1((3-Isothiocyanatopropoxy)methyl)-4-phenoxybenzene] registered a 50% inhibitory concentration (IC50) at hNAAA [2] of 0.01 to 0.1 µM.

In turn, `S=C=N[C@H]1C[C@@H](OCc2ccc(Oc3ccccc3)cc2Br)C1` [Example 49, 2-Bromo-1-(((1S,3S)-3-isothiocyanatocyclobutoxy)methyl)-4-phenoxybenzene] registered a half-inhibitory concentration (IC50) on hNAAA [2] of 0.11 to 1 µM.

Take `CN(Cc1ccc(-c2ccccc2)cc1)C1CC(N=C=S)C1` [Example 53, (1R,3R)—N-([1,1′-Biphenyl]-4-ylmethyl)-3-isothiocyanato-N-methylcyclobutan-1-amine]: the IC50 on hNAAA [2] (setting [4]) was > 1 µM. Still for that read-out and setting: as for `O=C(OCc1ccccc1)N1CCC(CN=C=S)CC1` [Example 13, Benzyl 4-(isothiocyanatomethyl)tetrahydro-1(2H)-pyridinecarboxylate], the figure is > 1 µM; as for `COc1ccc(-c2ccc(F)c(CO[C@H]3C[C@@H](N=C=S)C3)c2)cc1F` [Example 43, 3,4′-Difluoro-3′-(((1S,3S)-3-isothiocyanatocyclobutoxy)methyl)-4-methoxy-1,1′-biphenyl], > 1 µM. `COc1cccc(-c2ccc(COC3CN(C#N)C3)c(F)c2)c1` [Example 78, 3-((3-Fluoro-3′-methoxy-[1,1′-biphenyl]-4-yl)methoxy)azetidine-1-carbonitrile] had a 50% inhibitory concentration (IC50) against hNAAA [2] of 0.01 to 0.1 µM. Same read-out and setting: as for `COc1ccc(-c2ccc(CO[C@H]3C[C@@H](N=C=S)C3)c(F)c2)cc1OC` [Example 40, 3-Fluoro-4-(((1S,3S)-3-isothiocyanatocyclobutoxy)methyl)-3′,4′-dimethoxy-1,1′-biphenyl], the figure is 0.01 to 0.1 µM; as for `S=C=NCCCOCc1ccc(-c2ccccc2)cc1` [Example 25, 4-((3-Isothiocyanatopropoxy)methyl)-1,1′-biphenyl], 0.01 to 0.1 µM. `N#Cc1ccc(OCc2ccc(Oc3ccccc3)cc2Br)cn1` [Example 110, 5-((2-Bromo-4-phenoxybenzyl)oxy)picolinonitrile]: the concentration for half-maximal inhibition (IC50) at hNAAA [2] (setting [4]) is > 1 µM. On hNAAA [2], `N#CN1CC(OCc2ccc(OC(c3ccc(F)cc3)c3ccc(F)cc3)cc2Br)C1` [Example 94, 3-((4-(Bis(4-fluorophenyl)methoxy)-2-bromobenzyl)oxy)azetidine-1-carbonitrile] displayed an IC50 of 0.01 to 0.1 µM.
